# Molecular target: T1, human PAD4 (Homo sapiens, UniProt Q9UM07)
# T1 construct: human PAD4 (NM_012387), A2P663, was PCR amplified; His-SUMO (N, cleaved yes); made in house; host or cells: E. coli BL21(DE3)
# Test: In vitro PAD4 BAEE biochemical assay
# Settings: human PAD4, BAEE substrate; 5 nM PAD4, 2 mM calcium chloride, 3 mM BAEE; geometric mean of multiple experiments
# In short: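 Tag-free recombinant hPAD4 (5 nM), 2 mM CaCl2, 3 mM BAEE, 50 mM MOPS pH 7.6, 2 mM DTT; 30 min compound preincubation, 2 h reaction, all 25 °C. EDTA quench; ammonia read via o-phthalaldehyde amine coupling, 1 h.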
# T1 sequence (Q9UM07 2-663): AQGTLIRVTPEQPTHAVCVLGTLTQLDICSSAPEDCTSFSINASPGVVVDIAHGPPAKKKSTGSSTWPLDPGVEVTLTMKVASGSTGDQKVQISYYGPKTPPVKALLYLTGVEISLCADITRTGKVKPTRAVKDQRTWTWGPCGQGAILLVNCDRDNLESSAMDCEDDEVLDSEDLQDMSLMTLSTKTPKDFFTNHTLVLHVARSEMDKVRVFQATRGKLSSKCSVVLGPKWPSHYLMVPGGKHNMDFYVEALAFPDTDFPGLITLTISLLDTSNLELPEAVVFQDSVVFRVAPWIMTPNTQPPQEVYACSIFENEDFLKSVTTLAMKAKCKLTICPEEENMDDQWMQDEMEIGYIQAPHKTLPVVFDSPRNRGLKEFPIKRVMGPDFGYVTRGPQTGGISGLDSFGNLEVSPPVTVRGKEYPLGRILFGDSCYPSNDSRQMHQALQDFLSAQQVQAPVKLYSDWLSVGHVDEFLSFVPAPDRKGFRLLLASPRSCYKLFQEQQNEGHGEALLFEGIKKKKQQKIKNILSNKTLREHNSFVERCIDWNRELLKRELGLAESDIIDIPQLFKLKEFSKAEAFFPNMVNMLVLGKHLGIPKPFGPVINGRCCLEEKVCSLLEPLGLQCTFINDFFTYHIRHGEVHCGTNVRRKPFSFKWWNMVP
row,IC50 [nM],Structure (SMILES)
1,58,"COc1cc(C(=O)N2[C@H]3CC[C@@H]2[C@H](N)C3)cc2nc(-c3cc4ccc([C@@H](C)NC(=O)c5cn(C)nc5Cl)nc4n3CC3CC3)c(C)n12 [Example 76, ~{N}-[(1~{R})-1-[2-[7-[(1~{R},2~{R},4~{S})-2-amino-7-azabicyclo[2.2.1]heptane-7-carbonyl]-5-methoxy-3-methylimidazo [1,2-a]pyridin-2-yl]-1-(cyclopropylmethyl)pyrrolo [2,3-b]pyridin-6-yl]ethyl]-3-chloro-1-methylpyrazole-4-carboxamide]"
2,41.4,"COc1cc(C(=O)N2[C@H]3CC[C@@H]2[C@H](N)C3)cc2nc(-c3cc4ccc([C@@H](C)NC(=O)C5CC5)nc4n3CC3CC3)c(C)n12 [Example 78, ~{N}-[(1~{R})-1-[2-[7-[(1~{R},2~{R},4~{S})-2-amino-7-azabicyclo[2.2.1]heptane-7-carbonyl]-5-methoxy-3-methylimidazo [1,2-a]pyridin-2-yl]-1-(cyclopropylmethyl)pyrrolo [2,3-b]pyridin-6-yl]ethyl] cyclopropanecarboxamide]"
3,28.6,"COc1cc(C(=O)N2[C@H]3CC[C@@H]2[C@H](N)C3)cc2nc(-c3cc4ccc([C@@H](C)NC(=O)c5cnc(C)o5)nc4n3CC3CC3)c(C)n12 [Example 80, ~{N}-[(1~{R})-1-[2-[7-[(1~{R},2~{R},4~{S})-2-amino-7-azabicyclo[2.2.1]heptane-7-carbonyl]-5-methoxy-3-methylimidazo [1,2-a]pyridin-2-yl]-1-(cyclopropylmethyl)pyrrolo [2,3-b]pyridin-6-yl]ethyl]-2-methyl-1,3-oxazole-5-carboxamide]"
4,112,"COc1cc(C(=O)N2[C@H]3CC[C@@H]2[C@H](N)C3)cc2nc(-c3cc4ccc([C@@H](C)NC(=O)c5ccn(C(F)F)n5)nc4n3CC3CC3)c(C)n12 [Example 81, ~{N}-[(1~{R})-1-[2-[7-[(1~{R},2~{R},4~{S})-2-amino-7-azabicyclo[2.2.1]heptane-7-carbonyl]-5-methoxy-3-methylimidazo [1,2-a]pyridin-2-yl]-1-(cyclopropylmethyl)pyrrolo [2,3-b]pyridin-6-yl]ethyl]-1-(difluoromethyl)pyrazole-3-carboxamide]"
5,51.2,"COc1cc(C(=O)N2[C@H]3CC[C@@H]2[C@H](N)C3)cc2nc(-c3cc4ccc([C@@H](C)NC(=O)c5cnn(C(C)(C)C)c5)nc4n3CC3CC3)c(C)n12 [Example 82, ~{N}-[(1~{R})-1-[2-[7-[(1~{R},2~{R},4~{S})-2-amino-7-azabicyclo[2.2.1]heptane-7-carbonyl]-5-methoxy-3-methylimidazo [1,2-a]pyridin-2-yl]-1-(cyclopropylmethyl)pyrrolo [2,3-b]pyridin-6-yl]ethyl]-1-~{tert}-butylpyrazole-4-carboxamide]"
6,47.2,COc1cc(C(=O)N2[C@H]3CC[C@@H]2[C@H](N)C3)cc2nc(-c3cc4ccc([C@@H](C)NC(=O)c5cnccn5)nc4n3CC3CC3)c(C)n12 [Example 83]
7,57.8,"COc1cc(C(=O)N2[C@H]3CC[C@@H]2[C@H](N)C3)cc2nc(-c3cc4ccc([C@@H](C)NC(=O)C(C)(C)CO)nc4n3CC3CC3)c(C3CC3)n12 [Example 86, ~{N}-[(1~{R})-1-[2-[7-[(1~{R},2~{R},4~{S})-2-amino-7-azabicyclo[2.2.1]heptane-7-carbonyl]-3-cyclopropyl-5-methoxyimidazo [1,2-a]pyridin-2-yl]-1-(cyclopropylmethyl)pyrrolo [2,3-b]pyridin-6-yl]ethyl]-3-hydroxy-2,2-dimethylpropanamide]"
8,44.2,"COc1cc(C(=O)N2[C@H]3CC[C@@H]2[C@H](N)C3)cc2nc(-c3cc4ccc([C@@H](C)NC(=O)C5(O)CCCC5)nc4n3CC3CC3)c(C)n12 [Example 88, ~{N}-[(1~{R})-1-[2-[7-[(1~{R},2~{R},4~{S})-2-amino-7-azabicyclo[2.2.1]heptane-7-carbonyl]-5-methoxy-3-methylimidazo [1,2-a]pyridin-2-yl]-1-(cyclopropylmethyl)pyrrolo [2,3-b]pyridin-6-yl]ethyl]-1-hydroxycyclopentane-1-carboxamide]"

# Continued, molecule first:
row,Structure (SMILES),IC50 [nM]
1,"COc1cc(C(=O)N2[C@H]3CC[C@@H]2[C@H](N)C3)cc2nc(-c3cc4ccc([C@@H](C)NC(=O)c5cncs5)nc4n3CC3CC3)c(C)n12 [Example 72, ~{N}-[(1~{R})-1-[2-[7-[(1~{R},2~{R},4~{S})-2-amino-7-azabicyclo[2.2.1]heptane-7-carbonyl]-5-methoxy-3-methylimidazo [1,2-a]pyridin-2-yl]-1-(cyclopropylmethyl)pyrrolo [2,3-b]pyridin-6-yl]ethyl]-1,3-thiazole-5-carboxamide]",32.7
2,"COc1cc(C(=O)N2[C@H]3CC[C@@H]2[C@H](N)C3)cc2nc(-c3cc4ccc([C@@H](C)NC(=O)c5ncco5)nc4n3CC3CC3)c(C)n12 [Example 73, ~{N}-[(1~{R})-1-[2-[7-[(1~{R},2~{R},4~{S})-2-amino-7-azabicyclo[2.2.1]heptane-7-carbonyl]-5-methoxy-3-methylimidazo [1,2-a]pyridin-2-yl]-1-(cyclopropylmethyl)pyrrolo [2,3-b]pyridin-6-yl]ethyl]-1,3-oxazole-2-carboxamide]",38.7
3,"COc1cc(C(=O)N2[C@H]3CC[C@@H]2[C@H](N)C3)cc2nc(-c3cc4ccc([C@@H](C)NC(=O)c5cnn6c5CCC6)nc4n3CC3CC3)c(C)n12 [Example 74, ~{N}-[(1~{R})-1-[2-[7-[(1~{R},2~{R},4~{S})-2-amino-7-azabicyclo[2.2.1]heptane-7-carbonyl]-5-methoxy-3-methylimidazo [1,2-a]pyridin-2-yl]-1-(cyclopropylmethyl)pyrrolo [2,3-b]pyridin-6-yl]ethyl]-5,6-dihydro-4~{H}-pyrrolo[1,2-b] pyrazole-3-carboxamide]",28.3
4,"COc1cc(C(=O)N2[C@H]3CC[C@@H]2[C@H](N)C3)cc2nc(-c3cc4ccc([C@@H](C)NC(=O)c5cnn(C)c5Cl)nc4n3CC3CC3)c(C)n12 [Example 75, ~{N}-[(1~{R})-1-[2-[7-[(1~{R},2~{R},4~{S})-2-amino-7-azabicyclo[2.2.1]heptane-7-carbonyl]-5-methoxy-3-methylimidazo [1,2-a]pyridin-2-yl]-1-(cyclopropylmethyl)pyrrolo [2,3-b]pyridin-6-yl]ethyl]-5-chloro-1-methylpyrazole-4-carboxamide]",39.2
5,"CCn1cc(C(=O)N[C@H](C)c2ccc3cc(-c4nc5cc(C(=O)N6[C@H]7CC[C@@H]6[C@H](N)C7)cc(OC)n5c4C)n(CC4CC4)c3n2)cn1 [Example 77, ~{N}-[(1~{R})-1-[2-[7-[(1~{R},2~{R},4~{S})-2-amino-7-azabicyclo[2.2.1]heptane-7-carbonyl]-5-methoxy-3-methylimidazo [1,2-a]pyridin-2-yl]-1-(cyclopropylmethyl)pyrrolo [2,3-b]pyridin-6-yl]ethyl]-1-ethylpyrazole-4-carboxamide]",30.7
6,"COc1cc(C(=O)N2[C@H]3CC[C@@H]2[C@H](N)C3)cc2nc(-c3cc4ccc([C@@H](C)NC(=O)c5cnc(C6CC6)o5)nc4n3CC3CC3)c(C)n12 [Example 79, ~{N}-[(1~{R})-1-[2-[7-[(1~{R},2~{R},4~{S})-2-amino-7-azabicyclo[2.2.1]heptane-7-carbonyl]-5-methoxy-3-methylimidazo [1,2-a]pyridin-2-yl]-1-(cyclopropylmethyl)pyrrolo [2,3-b]pyridin-6-yl]ethyl]-2-cyclopropyl-1,3-oxazole-5-carboxamide]",56
7,"COc1cc(C(=O)N2[C@H]3CC[C@@H]2[C@H](N)C3)cc2nc(-c3cc4ccc([C@@H](C)NC(=O)C5(C)CC(F)(F)C5)nc4n3CC3CC3)c(C)n12 [Example 84, ~{N}-[(1~{R})-1-[2-[7-[(1~{R},2~{R},4~{S})-2-amino-7-azabicyclo[2.2.1]heptane-7-carbonyl]-5-methoxy-3-methylimidazo [1,2-a]pyridin-2-yl]-1-(cyclopropylmethyl)pyrrolo [2,3-b]pyridin-6-yl]ethyl]-3,3-difluoro-1-methylcyclobutane-1-carboxamide]",59.7
8,"COc1cc(C(=O)N2[C@H]3CC[C@@H]2[C@H](N)C3)cc2nc(-c3cc4ccc([C@@H](C)NC(=O)C5CC(F)(F)C5)nc4n3CC3CC3)c(C)n12 [Example 85, ~{N}-[(1~{R})-1-[2-[7-[(1~{R},2~{R},4~{S})-2-amino-7-azabicyclo[2.2.1]heptane-7-carbonyl]-5-methoxy-3-methylimidazo [1,2-a]pyridin-2-yl]-1-(cyclopropylmethyl)pyrrolo [2,3-b]pyridin-6-yl]ethyl]-3,3-difluorocyclobutane-1-carboxamide]",28.7
9,"COc1cc(C(=O)N2[C@H]3CC[C@@H]2[C@H](N)C3)cc2nc(-c3cc4ccc([C@@H](C)NC(=O)C(C)C)nc4n3CC3CC3)c(C)n12 [Example 89, ~{N}-[(1~{R})-1-[2-[7-[(1~{R},2~{R},4~{S})-2-amino-7-azabicyclo[2.2.1]heptane-7-carbonyl]-5-methoxy-3-methylimidazo [1,2-a]pyridin-2-yl]-1-(cyclopropylmethyl)pyrrolo [2,3-b]pyridin-6-yl]ethyl]-2-methylpropanamide]",40.1
10,"CCCC(=O)N[C@H](C)c1ccc2cc(-c3nc4cc(C(=O)N5[C@H]6CC[C@@H]5[C@H](N)C6)cc(OC)n4c3C)n(CC3CC3)c2n1 [Example 90, ~{N}-[(1~{R})-1-[2-[7-[(1~{R},2~{R},4~{S})-2-amino-7-azabicyclo[2.2.1]heptane-7-carbonyl]-5-methoxy-3-methylimidazo [1,2-a]pyridin-2-yl]-1-(cyclopropylmethyl)pyrrolo [2,3-b]pyridin-6-yl]ethyl]butanamide]",30.4

# Source: patent US12240862B2, “Inhibitors of peptidylarginine deiminases” (Gilead Sciences, Inc., priority 2020, dated 2025)
